Test results published in paper doi:10.1101/2021.12.08.471775v2 (biorxiv, 2022).

Target: α4β2Rs (rat α4β2 nAChRs) (Rattus norvegicus, UniProt P09483+P12390)
Type: cell-based

Chain of α4β2Rs (rat α4β2 nAChRs) (P09483 31-630): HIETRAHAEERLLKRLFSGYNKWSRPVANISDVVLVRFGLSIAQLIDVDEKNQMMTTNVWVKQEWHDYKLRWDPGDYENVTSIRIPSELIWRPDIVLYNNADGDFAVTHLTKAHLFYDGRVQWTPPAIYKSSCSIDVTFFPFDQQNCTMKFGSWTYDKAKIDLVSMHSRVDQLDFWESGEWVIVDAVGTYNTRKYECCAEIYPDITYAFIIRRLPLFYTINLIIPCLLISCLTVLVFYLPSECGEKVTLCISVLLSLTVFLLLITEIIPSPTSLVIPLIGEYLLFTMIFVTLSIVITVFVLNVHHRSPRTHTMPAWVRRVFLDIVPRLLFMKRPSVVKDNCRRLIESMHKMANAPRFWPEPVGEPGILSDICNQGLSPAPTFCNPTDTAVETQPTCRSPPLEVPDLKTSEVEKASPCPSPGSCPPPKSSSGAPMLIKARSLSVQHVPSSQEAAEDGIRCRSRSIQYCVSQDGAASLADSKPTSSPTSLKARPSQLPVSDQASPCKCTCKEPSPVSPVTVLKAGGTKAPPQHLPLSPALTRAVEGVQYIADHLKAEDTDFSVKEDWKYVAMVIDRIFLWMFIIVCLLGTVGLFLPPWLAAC
Chain of α4β2Rs (rat α4β2 nAChRs) (P12390 25-500): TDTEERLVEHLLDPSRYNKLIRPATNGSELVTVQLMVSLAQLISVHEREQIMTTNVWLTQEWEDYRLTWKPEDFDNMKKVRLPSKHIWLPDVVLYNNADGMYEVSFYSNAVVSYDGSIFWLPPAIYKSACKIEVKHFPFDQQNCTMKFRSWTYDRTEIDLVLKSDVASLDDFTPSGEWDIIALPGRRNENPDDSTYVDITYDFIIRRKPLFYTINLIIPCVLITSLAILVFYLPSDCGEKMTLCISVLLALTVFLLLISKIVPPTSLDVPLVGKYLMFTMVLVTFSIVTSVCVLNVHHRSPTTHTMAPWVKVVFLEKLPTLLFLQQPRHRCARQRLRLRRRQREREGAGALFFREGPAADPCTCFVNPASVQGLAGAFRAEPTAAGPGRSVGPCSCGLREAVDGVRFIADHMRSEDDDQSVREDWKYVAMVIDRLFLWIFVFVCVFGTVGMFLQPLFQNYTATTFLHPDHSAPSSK

With `Fc1ncccc1OC[C@@H]1C=CCN1` [Nifene] as the compound, how does the Ki read?
Its Ki is 0.31 nM.
